Assay results: US20240245780A1, “PHARMACEUTICAL COMPOSITIONS CONTAINING STABLE AMORPHOUS SOLID SOLUTIONS AND DISPERSIONS” (Eastman Chemical Company, priority 2021, published 2024)
Like-named read-outs stand apart in the source and are kept apart here.

Experiments:
[1] = cited from earlier work
[2] = Solubility study of PSD in heated SAIB, HPLC; type: physicochemical
Method: Analysis of drugs was performed by HPLC. […] Solubility was determined in three replicates for each drug.
SAIB was heated to 150° C. (RFX, DST, DLT, CYS, ITZ, SRL, APT and CBZ) or 130° C. (TAC and APZ), followed by addition of a known amount of the drug to dissolve in 30 min. Approximately, 100 mg of each sample were transferred to a 100-mL volumetric flask, and volume was made up with the mobile phase to dissolve the drug. The amount of dissolved drug was determined by validated HPLC.

[3] = JECFA 1996, including pediatric populations; cited from earlier work
[4] = SAIB temperature 150° C., 30 min, three replicates

Row | Compound | pKa [1] | Increase in Solubility Relative to Water [2] | Solubility in SAIB [2, 4] | other results
1 | C[C@@H](O[C@H]1OCCN(Cc2n[nH]c(=O)[nH]2)[C@H]1c1ccc(F)cc1)c1cc(C(F)(F)F)cc(C(F)(F)F)c1 [Aprepitant] | 10 | 55.7x |  | 
2 | O=C1CCc2ccc(OCCCCN3CCN(c4cccc(Cl)c4Cl)CC3)cc2N1 [Aripiprazole] |  |  |  | Solubility in SAIB [2]: 21.6 ± 2.6 mg/g
3 | NC(=O)N1c2ccccc2C=Cc2ccccc21 [Carbamazepine] |  | 532.3x | 76.5 ± 4.0 mg/g | Solubility in SAIB (in words) ([2]; SAIB at 130 or 150° C.): high solubility; Solubility in SAIB ([2]; SAIB temperature 150° C., 30 min, three replicates, listed as CBZ): 76.5 ± 4.0 mg/g
4 | Cc1nc(Nc2ncc(C(=O)Nc3c(C)cccc3Cl)s2)cc(N2CCN(CCO)CC2)n1 [Dasatinib] |  |  | insoluble | 
5 | C[C@@H]1CCO[C@H]2Cn3cc(C(=O)NCc4ccc(F)cc4F)c(=O)c(O)c3C(=O)N12 [Dolutegravir] | 8 |  | 1.7 ± 0.4 mg/g | 
6 | CCC(C)n1ncn(-c2ccc(N3CCN(c4ccc(OCC5COC(Cn6cncn6)(c6ccc(Cl)cc6Cl)O5)cc4)CC3)cc2)c1=O (stereo not shown) [Itraconazole] |  |  | insoluble | 
7 | CO[C@H]1/C=C/O[C@@]2(C)Oc3c(C)c(O)c4c(O)c(c5c(nc6cc(C)ccn65)c4c3C2=O)NC(=O)/C(C)=C\C=C\[C@H](C)[C@H](O)[C@@H](C)[C@@H](O)[C@@H](C)[C@H](OC(C)=O)[C@@H]1C [Rifaximin] | 7 |  |  | Solubility in SAIB (in words) [2]: high solubility
8 | CO[C@H]1C[C@@H]2CC[C@@H](C)[C@@](O)(O2)C(=O)C(=O)N2CCCC[C@H]2C(=O)O[C@H]([C@H](C)C[C@@H]2CC[C@@H](O)[C@H](OC)C2)CC(=O)[C@H](C)/C=C(\C)[C@@H](O)[C@@H](OC)C(=O)[C@H](C)C[C@H](C)/C=C/C=C/C=C/1C [Sirolimus] | 10 |  | 1.9 ± 0.0 mg/g | 
9 | C=CC[C@@H]1/C=C(\C)C[C@H](C)C[C@H](OC)[C@H]2O[C@@](O)(C(=O)C(=O)N3CCCC[C@H]3C(=O)O[C@H](/C(C)=C/[C@@H]3CC[C@@H](O)[C@H](OC)C3)[C@H](C)[C@@H](O)CC1=O)[C@H](C)C[C@@H]2OC [Tacrolimus] | 10 | 9591.7x |  | Solubility in SAIB (in words) ([2]; SAIB at 130 or 150° C.): high solubility; Solubility in SAIB ([2]; SAIB temperature 130° C., 30 min, three replicates, listed as TAC): 115.1 ± 2.3 mg/g; Solubility in SAIB ([2]; SAIB temperature 130° C., 30 min, three replicates, listed as Tracolimus): 115.1 ± 2.3 mg/g
10 | sucrose acetate isobutyrate [SAIB] |  |  |  | log P of SAIB [1]: 6; permanent acceptable daily intake [3]: up to 20 mg/kg body weight
